In US6048888A, “Method and pharmaceutical formulation for treating benign prostatic hyperplasia” (priority 1993, dated 2000):

Columns and labels:
[1] = test system: melatonin binding sites in cytosol of epithelial cells from human BPH prostate tissue; assay: Specific binding of 125I-melatonin to cytosol from epithelial cells of human BPH tissue; details: for Bound in Epithelial (specific binding, mean): 4 patients
Experimental: (§1) Tissue specimens were obtained from prostate glands removed by open surgery from patients suffering from urinary obstruction due to benign prostatic hyperplasia. Epithelial and stromal cells were separated from the tissue by filtration through a stainless steel mesh. The cells were then washed with saline and collected by centrifugation (1000 g, 5 min). […] The two preparations were separately homogenized at 4° C. in 0.05 M Tris-HCl, pH 7.4. Each homogenate was spun at 100,000 g for 1 hour at 4° C. and the supernatant was removed with a Pasteur pipette. Melatonin binding was measured by incubating 300 microliters of supernatant containing ca. 20 mcg. protein with carrier-free ^125 I-melatonin at concentrations of 0-1 nM, for 1 hour at 37° C. in the presence of 0.05% Triton X-100. After the incubation period, bound ^125 I-melatonin was separated from free ^125 I-melatonin by vacuum filtration using GFF glass fiber filters saturated with polyethylenimine. Protein concentrations were measured by the method of Lowry et al (J. Biol. Chem., 193: 265, 1951) using bovine serum albumin as a standard. Non-specific binding was determined by incubating the supernatant samples with the specified concentrations of ^125 I-melatonin, but in the presence of a vast excess (10 micromolar) nonradioactive melatonin.

[2] = test system: melatonin binding sites in cytosol of stromal cells from human BPH prostate tissue; assay: Specific binding of 125I-melatonin to cytosol from stromal cells of human BPH tissue; details: for Bound in Stromal (specific binding, mean): 4 patients
Experimental: as §1, with “melatonin. These experiments were repeated four times, using specimens from four different patients, with similar results.” for “melatonin.”

adult castrated rats = assay: Experiment 1: androgen-dependent regrowth of accessory sex organs in adult castrated rats; type: in vivo, rat; details: testosterone propionate 1 mg/kg/day s.c. 4 days, melatonin about 40 mcg per day in drinking water
Experimental: The effects of orally administered melatonin on androgen-dependent prostatal regrowth in adult castrated rats was investigated. Male rats (2.5 months old) were castrated under anesthesia. After 7 days, during which the average weight of the prostate decreased by ca. 60%, the rats were given daily for 4 days, a subcutaneous injection of either oil vehicle (control) or oil vehicle containing testosterone propionate (1 mg/kg body weight per day, at one hour before lights-off). […] In order to determine the weight of the relevant organs, the rats were sacrificed at the end of the 4 days following the first 7 days. […] These studies indicate a direct inhibitory effect of orally administered melatonin on prostatal growth in adult rats, contrary to the dogma that melatonin can affect the pubertal development of the rat only during the first (prepubertal) 40 days of life (Lang et al. Endocrinology,112, 1578-1584, 1983).

[3] = test system: male volunteers suffering from BPH; assay: Experiment 2: placebo-controlled study of oral melatonin in male volunteers suffering from BPH; type: in vivo, human; details: 5 mg melatonin/day oral at about 10 p.m.; preliminary results
aged male rats = assay: Experiment 3: melatonin via drinking water for 30 days in aged male rats; type: in vivo, rat; details: 23-month old male rats
Experimental: The impact of exogenously administered melatonin on central melatonin binding sites and serum testosterone in aged male rats was investigated. Thus, 23-month old male rats were treated with melatonin via the drinking water for 30 days.

[4] = test system: 8-10 month old adult rats; assay: Experiment 4: long term (~18 months) melatonin via drinking water in adult rats; type: in vivo, rat
Experimental: The effects on 8-10 month old adult rats, of long term (~18 months) administration of melatonin via the drinking water (4 mg./l.), on the survival, on central melatonin binding sites, and on serum testosterone, were investigated.

[5] = test system: melatonin binding sites in the rat brain; assay: Experiment 5: melatonin binding sites in rat brain, sham-operated and pinealectomized rats; type: in vivo
[6] = test system: patient with benign prostate hypertrophy; assay: Example I: BPH patient on 0.5 mg sustained release melatonin daily; type: in vivo, human
Experimental: Thus, the patient's PSA level was elevated, and their prostatic acid phosphatase level was slightly above normal. […] Diagnosis after needle biopsy was benign prostate hypertrophy.
The patient began taking 0.5 mg melatonin in the sustained release form daily at 21:00-22:00 hours on Feb. 1, 1992; on a continuing basis, i.e. medication was continued essentially indefinitely. […] Examination of the patient by ultrasonographic scanning on Oct. […] By Jun.

BPH patients [7] = assay: Example II: ultrastructural morphology of the human prostate after 30 days of melatonin; type: in vivo; details: 5 mg sustained release daily in the evening, 30 days prior to prostatectomy, five BPH patients
Source text: Specimens from the prostate glands removed from the treated patients, and from control untreated patients of the same status, were fixed in glutaraldehyde immediately after the excision, embedded in "Epon" and analyzed by electron microscopy.

BPH patients [8] = type: in vivo, human
Experimental: In a clinical trial which commenced in April, 1993, 23 BPH patients were recruited and divided into two groups, one group receiving 5 mg melatonin in a sustained release formulation and the other group 50 mg melatonin in a fast release formulation, these dosages being given daily, in the evening. One patient withdrew from the study after 7 days of treatment. […] Up to August, 1993, 6 patients finished 3 months' treatment with melatonin, and the remainder had 1-2 months treatment. All patients will continue the treatment with melatonin until 6 months is completed.

3α reductase = details: BPH tissue samples; cited from earlier work
5α reductase = details: BPH tissue samples; cited from earlier work
[9] = test system: castrated rats; hypophysectomized animals; details: cited from earlier work
male and female rats = details: oral 16-40 mcg. per day; cited from earlier work
pinealectomized rats = details: orally administered; cited from earlier work
human subjects = details: cited from earlier work
[10] = 4 mg./l. in drinking water, ~18 months
[11] = patients who had completed 3 months' treatment
[12] = pinealectomized rats, daily injections

COc1ccc2[nH]c([125I])c(CCNC(C)=O)c2c1 [^125 I-melatonin]
Bound in Epithelial (specific binding, mean) ([1]; 125I-melatonin 0.05 nM): 6.25 fmol/mg protein | Bound in Epithelial (specific binding, mean) ([1]; 125I-melatonin 0.10 nM): 12.5 fmol/mg protein | Bound in Epithelial (specific binding, mean) ([1]; 125I-melatonin 0.20 nM): 31.3 fmol/mg protein | Bound in Epithelial (specific binding, mean) ([1]; 125I-melatonin 0.30 nM): 45.6 fmol/mg protein | Bound in Epithelial (specific binding, mean) ([1]; 125I-melatonin 0.50 nM): 66.9 fmol/mg protein | Bound in Epithelial (specific binding, mean) ([1]; 125I-melatonin 1.00 nM): 93.1 fmol/mg protein | Bound in Stromal (specific binding, mean) ([2]; 125I-melatonin 0.05 nM): 0.6 fmol/mg protein | Bound in Stromal (specific binding, mean) ([2]; 125I-melatonin 0.10 nM): 2.5 fmol/mg protein | Bound in Stromal (specific binding, mean) ([2]; 125I-melatonin 0.20 nM): 3.7 fmol/mg protein | Bound in Stromal (specific binding, mean) ([2]; 125I-melatonin 0.30 nM): 4.3 fmol/mg protein | Bound in Stromal (specific binding, mean) ([2]; 125I-melatonin 0.50 nM): 8.8 fmol/mg protein | Bound in Stromal (specific binding, mean) ([2]; 125I-melatonin 1.00 nM): 16.2 fmol/mg protein

COc1ccc2[nH]cc(CCNC(C)=O)c2c1 [melatonin]
Kd ([1]; 125I-melatonin probe, epithelial cell cytosol, 1 hour at 37° C., read-out: dissociation constant): 600 pM | binding site density ([1]; epithelial cell cytosol): 140 fmol/mg cytosol protein | concentration of binding sites in stromal cytosol, factor lower than epithelial ([2]; relative to 140 fmol/mg in epithelial cytosol): approximately 10 x | specific binding in the stromal preparations ([2]; stromal cell cytosol): very low | weight / regrowth of seminal vesicles (adult castrated rats): did not significantly affect regrowth of the seminal vesicles | weight / regrowth of ventral prostate (adult castrated rats): prevented the testosterone-mediated regrowth of the prostate | weight of epididemis (adult castrated rats): had hardly any effect on the epididemis | urinary flow [3]: immediate improvement in urinary flow in some of the patients | melatonin binding sites in brain areas (aged male rats): markedly increased melatonin binding sites in the hypothalamus, medulla-pons, thalamus and cortex | serum testosterone levels vs untreated controls (aged male rats): did not significantly differ | suppressive effect of testosterone on melatonin binding sites in hypothalamus and hippocampus (aged male rats): attenuated a suppressive effect of testosterone on melatonin binding sites | melatonin binding sites in brain of aged rats [4, 10]: significantly increased melatonin binding sites in the medulla-pons and hypothalamus | number of rats surviving at the age of 24-29 months [4, 10]: markedly increased the number of rats surviving | serum testosterone levels vs untreated controls [4, 10]: significantly higher | survival at age 27-29 months ([4]; 4 mg./l. in drinking water, control 7 of 16): these continued to live at age 27-29 months | animals surviving at age 26-28 months ([4]; 4 mg./l. in drinking water, control 8 of 16, P=0.01): 13 of 15 animals | pneumonia ([4]; aged survivors, 5 of 7 control survivors had severe pneumonia): either did not suffer from pneumonia, or had only very weak symptoms | 125I-melatonin binding in the various brain areas ([5]; pinealectomized rats, melatonin via drinking water, any time recorded): had no effect on ^125 I-melatonin binding | 125I-melatonin binding in hippocampus and midbrain ([5]; sham-operated rats, melatonin via drinking water, 13 hours after lights-on): decrease in ^125 I-melatonin binding | urinary flow (subjective) ([6]; 0.5 mg sustained release daily at 21:00-22:00, 6 days after initiation): subjective improvement in urinary flow | estimated size of the prostate gland (ultrasonographic scanning) ([6]; 0.5 mg sustained release daily, Oct. 22, 1992, 55 g before and after): no change in estimated size of the prostate gland | residual bladder urine volume retained after two attempts to empty the bladder ([6]; 0.5 mg sustained release daily, Oct. 22, 1992, 100 ml before treatment): zero | ultrastructural morphology of prostate specimens (electron microscopy) (BPH patients [7]): evidence for secretion of fresh collagen bundles | urinary flow (subjective) (BPH patients [8]; 5 mg sustained release or 50 mg fast release daily in the evening, all patients but one who withdrew): subjective improvement of urinary flow | decrease in the PSA level (BPH patients [8]; [11]): approximately 10% | enlargement of the prostate gland (BPH patients [8]; [11]): no further enlargement of the prostate gland | 3α reductase activity (3α reductase): stimulate 3α reductase activity | 5α reductase activity (5α reductase): did not affect 5α reductase activity | weight of testes and ventral prostate gland ([9]; hypophysectomized animals): decreases the weight of both the testes and the ventral prostate gland | regression of the ventral prostate gland ([9]; subcutaneous 750 mcg., castrated rats, in presence of exogenous testosterone): enhances regression of the ventral prostate gland | pubertal development, including prostate development in the males (male and female rats): delayed pubertal development of male and female rats | ventral prostate and seminal vesicle weight (pinealectomized rats): lowered ventral prostate and seminal vesicle weight | toxicity (human subjects; human, in vivo): no significant toxicity has been observed | circulating testosterone levels (human subjects; humans): does not increase circulating testosterone levels

O=C1Nc2ccc(Cl)cc2C(c2ccccc2)=NC1O (stereo not shown) [oxazepam]
melatonin binding at other times of the day [5, 12]: did not significantly effect the binding at other times of the day | melatonin binding sites at 19 hours after lights-on [5, 12]: decreased melatonin binding sites at 19 hours after lights-on | densities of melatonin binding sites in brain areas, time of peak ([5]; sham-operated rats, daily injections 14 days, untreated peak at 13 hours after lights-on): higher at midnight

CCC(=O)O[C@H]1CC[C@H]2[C@@H]3CCC4=CC(=O)CC[C@]4(C)[C@H]3CC[C@]12C [testosterone, testosterone propionate]
weight / regrowth of seminal vesicles (adult castrated rats): increased the weight of the seminal vesicles and ventral prostate | weight / regrowth of ventral prostate (adult castrated rats): increased the weight of the seminal vesicles and ventral prostate | weight of epididemis (adult castrated rats): had no effect on the epididemis
